# Results: article PMC11864979, “First-in-class ultralong-target-residence-time p38α inhibitors as a mitosis-targeted therapy for colorectal cancer” (Nature Cancer, 2025)
# Read-outs that look alike come from different tables or passages of the source.
# What was measured:
# Experiment in all cases: selectivity profiling in a panel of 340 wild-type kinases (Reaction Biology Europe)
# Assay type in all cases: binding
# 340 wild-type kinases [1] = target: T1, 340 wild-type kinases (Homo sapiens, UniProt P41240)
# T1 construct: purchased Reaction Biology Europe
# T1 sequence (P41240 whole entry): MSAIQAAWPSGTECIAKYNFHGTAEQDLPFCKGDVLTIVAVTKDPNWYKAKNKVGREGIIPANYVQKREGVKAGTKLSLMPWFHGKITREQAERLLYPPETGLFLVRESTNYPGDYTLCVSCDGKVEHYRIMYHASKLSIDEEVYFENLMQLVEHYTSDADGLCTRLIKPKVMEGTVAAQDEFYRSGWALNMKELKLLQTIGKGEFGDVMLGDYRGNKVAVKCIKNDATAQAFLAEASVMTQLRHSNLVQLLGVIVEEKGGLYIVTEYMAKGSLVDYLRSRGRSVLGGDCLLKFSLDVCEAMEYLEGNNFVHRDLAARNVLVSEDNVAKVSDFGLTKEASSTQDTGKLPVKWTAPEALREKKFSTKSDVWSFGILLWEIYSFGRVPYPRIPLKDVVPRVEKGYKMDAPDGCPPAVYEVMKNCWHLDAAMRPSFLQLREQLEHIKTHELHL
# 340 wild-type kinases [2] = target: T2, 340 wild-type kinases (Homo sapiens, UniProt Q9NR20)
# T2 construct: purchased Reaction Biology Europe
# T2 sequence (Q9NR20 1-520): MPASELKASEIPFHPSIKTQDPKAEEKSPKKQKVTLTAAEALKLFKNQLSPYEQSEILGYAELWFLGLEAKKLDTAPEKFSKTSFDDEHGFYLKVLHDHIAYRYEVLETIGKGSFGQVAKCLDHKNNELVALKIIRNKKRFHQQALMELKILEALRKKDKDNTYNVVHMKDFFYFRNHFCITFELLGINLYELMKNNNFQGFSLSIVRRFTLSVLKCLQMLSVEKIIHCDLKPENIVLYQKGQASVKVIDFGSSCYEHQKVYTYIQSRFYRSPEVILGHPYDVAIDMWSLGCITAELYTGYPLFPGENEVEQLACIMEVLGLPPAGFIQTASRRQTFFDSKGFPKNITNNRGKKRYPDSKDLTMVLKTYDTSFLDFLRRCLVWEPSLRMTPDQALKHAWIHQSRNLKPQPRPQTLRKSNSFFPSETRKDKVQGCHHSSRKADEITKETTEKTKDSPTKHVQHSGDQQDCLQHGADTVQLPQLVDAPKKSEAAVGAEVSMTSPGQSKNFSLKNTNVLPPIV
# 340 wild-type kinases [3] = target: T3, 340 wild-type kinases (Homo sapiens, UniProt P24723)
# T3 construct: purchased Reaction Biology Europe
# T3 sequence (P24723 whole entry): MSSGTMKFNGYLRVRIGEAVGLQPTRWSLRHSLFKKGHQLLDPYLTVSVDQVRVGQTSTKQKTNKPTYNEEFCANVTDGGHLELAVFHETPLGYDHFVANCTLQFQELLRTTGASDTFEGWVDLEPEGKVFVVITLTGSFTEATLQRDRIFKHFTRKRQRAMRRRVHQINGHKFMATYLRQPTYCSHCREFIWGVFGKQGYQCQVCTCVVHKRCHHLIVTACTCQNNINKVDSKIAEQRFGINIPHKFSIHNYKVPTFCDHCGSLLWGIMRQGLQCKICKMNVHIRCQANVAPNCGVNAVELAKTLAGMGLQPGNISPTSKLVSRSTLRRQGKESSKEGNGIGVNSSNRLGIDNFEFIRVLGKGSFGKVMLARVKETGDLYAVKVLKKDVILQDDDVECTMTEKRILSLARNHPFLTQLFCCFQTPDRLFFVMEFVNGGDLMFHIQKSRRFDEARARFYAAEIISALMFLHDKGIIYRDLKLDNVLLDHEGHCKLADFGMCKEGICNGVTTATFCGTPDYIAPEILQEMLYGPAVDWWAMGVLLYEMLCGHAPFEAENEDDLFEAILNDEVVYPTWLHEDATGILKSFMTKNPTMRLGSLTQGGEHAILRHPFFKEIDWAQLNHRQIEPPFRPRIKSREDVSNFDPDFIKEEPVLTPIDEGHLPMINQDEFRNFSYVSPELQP
# 340 wild-type kinases [4] = target: T4, 340 wild-type kinases (Homo sapiens, UniProt Q13163)
# T4 construct: purchased Reaction Biology Europe
# T4 sequence (Q13163 1-448): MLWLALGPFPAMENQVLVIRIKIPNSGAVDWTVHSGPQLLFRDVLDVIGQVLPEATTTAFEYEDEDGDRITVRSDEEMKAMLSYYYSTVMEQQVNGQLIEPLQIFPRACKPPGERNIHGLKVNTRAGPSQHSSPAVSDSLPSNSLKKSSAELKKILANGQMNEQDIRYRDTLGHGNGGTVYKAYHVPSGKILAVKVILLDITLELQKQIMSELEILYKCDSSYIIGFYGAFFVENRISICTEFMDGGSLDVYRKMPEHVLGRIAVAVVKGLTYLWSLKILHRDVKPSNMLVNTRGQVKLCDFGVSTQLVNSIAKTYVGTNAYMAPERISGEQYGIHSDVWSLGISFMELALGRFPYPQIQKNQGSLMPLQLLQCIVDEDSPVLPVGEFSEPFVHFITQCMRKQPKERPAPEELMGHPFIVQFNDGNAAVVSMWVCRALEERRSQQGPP
# 340 wild-type kinases [5] = target: T5, 340 wild-type kinases (Homo sapiens, UniProt Q8IU85)
# T5 construct: purchased Reaction Biology Europe
# T5 sequence (Q8IU85 whole entry): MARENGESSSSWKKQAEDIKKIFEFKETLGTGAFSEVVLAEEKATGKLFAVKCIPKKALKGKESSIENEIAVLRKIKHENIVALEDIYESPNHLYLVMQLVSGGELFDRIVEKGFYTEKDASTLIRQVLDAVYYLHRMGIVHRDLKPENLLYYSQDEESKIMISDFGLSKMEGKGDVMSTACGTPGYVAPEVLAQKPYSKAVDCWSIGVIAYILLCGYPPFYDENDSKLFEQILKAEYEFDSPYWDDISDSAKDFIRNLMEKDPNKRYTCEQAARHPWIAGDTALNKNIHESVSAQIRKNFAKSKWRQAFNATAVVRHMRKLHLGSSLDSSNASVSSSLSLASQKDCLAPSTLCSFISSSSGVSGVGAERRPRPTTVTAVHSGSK
# 340 wild-type kinases [6] = target: T6, 340 wild-type kinases (Homo sapiens, UniProt Q9BYT3)
# T6 construct: purchased Reaction Biology Europe
# T6 sequence (Q9BYT3 whole entry): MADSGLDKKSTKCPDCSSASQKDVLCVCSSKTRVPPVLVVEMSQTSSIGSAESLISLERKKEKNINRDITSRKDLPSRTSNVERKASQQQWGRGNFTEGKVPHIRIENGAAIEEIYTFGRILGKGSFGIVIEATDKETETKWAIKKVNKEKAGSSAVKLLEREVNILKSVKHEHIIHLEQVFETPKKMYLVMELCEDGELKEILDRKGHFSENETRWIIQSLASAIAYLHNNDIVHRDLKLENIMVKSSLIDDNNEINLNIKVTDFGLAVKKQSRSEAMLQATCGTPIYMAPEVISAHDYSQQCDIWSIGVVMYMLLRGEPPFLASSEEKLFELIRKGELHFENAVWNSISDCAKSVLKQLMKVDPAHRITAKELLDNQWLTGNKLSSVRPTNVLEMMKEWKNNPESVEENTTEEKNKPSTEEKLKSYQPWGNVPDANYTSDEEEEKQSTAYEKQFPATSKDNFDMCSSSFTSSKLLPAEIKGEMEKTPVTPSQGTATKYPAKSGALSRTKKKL
# 340 wild-type kinases [7] = target: T7, 340 wild-type kinases (Homo sapiens, UniProt Q8TF76)
# T7 construct: purchased Reaction Biology Europe
# T7 sequence (Q8TF76 1-798): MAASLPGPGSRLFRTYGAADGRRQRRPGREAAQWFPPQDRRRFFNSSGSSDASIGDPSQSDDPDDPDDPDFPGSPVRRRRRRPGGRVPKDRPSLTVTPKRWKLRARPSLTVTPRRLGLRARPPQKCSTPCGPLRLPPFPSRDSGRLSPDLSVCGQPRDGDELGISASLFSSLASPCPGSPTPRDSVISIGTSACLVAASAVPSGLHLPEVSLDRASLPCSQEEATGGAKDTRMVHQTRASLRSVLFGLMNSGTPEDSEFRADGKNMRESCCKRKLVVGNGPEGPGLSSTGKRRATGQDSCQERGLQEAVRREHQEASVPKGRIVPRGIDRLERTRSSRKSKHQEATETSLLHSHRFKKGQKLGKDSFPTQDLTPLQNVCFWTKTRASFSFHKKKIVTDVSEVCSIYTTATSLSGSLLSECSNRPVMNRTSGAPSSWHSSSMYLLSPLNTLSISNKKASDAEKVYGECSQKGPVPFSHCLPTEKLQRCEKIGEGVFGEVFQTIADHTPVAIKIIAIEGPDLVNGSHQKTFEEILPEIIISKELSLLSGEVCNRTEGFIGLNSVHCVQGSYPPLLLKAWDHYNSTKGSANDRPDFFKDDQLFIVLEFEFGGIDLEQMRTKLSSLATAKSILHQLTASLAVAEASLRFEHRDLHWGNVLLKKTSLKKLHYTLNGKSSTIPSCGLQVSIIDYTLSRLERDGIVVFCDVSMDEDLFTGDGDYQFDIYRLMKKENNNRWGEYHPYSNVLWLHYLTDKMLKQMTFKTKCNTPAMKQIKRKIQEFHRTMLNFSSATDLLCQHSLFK
# [8] = read-out: DYRK4 residual activity
compound,measurement,setting,value
CNC(=O)c1ccc2c(c1)C(=O)c1ccc(Nc3ccc(F)c(NC(=O)C4CC4)c3)cc1CC2 [Compound 2015],remaining activity at 0.2 µM,"340 wild-type kinases [1]; 0.2 µM 2015, read-out: CSK residual activity",114%
same,remaining activity at 1 µM,"340 wild-type kinases [1]; 1 µM 2015, read-out: CSK residual activity",93.1%
same,remaining activity at 0.2 µM,"340 wild-type kinases [1]; CSK, 0.2 µM, read-out: residual activity",114%
same,remaining activity at 1 µM,"340 wild-type kinases [1]; CSK, 1 µM, read-out: residual activity",93.1%
same,remaining activity at 0.2 µM,340 wild-type kinases [2]; [8],108%
same,remaining activity at 1 µM,340 wild-type kinases [2]; [8],97.1%
same,remaining activity at 0.2 µM,340 wild-type kinases [2]; read-out: residual activity,108%
same,remaining activity at 1 µM,340 wild-type kinases [2]; read-out: residual activity,97.1%
same,remaining activity at 0.2 µM,"340 wild-type kinases [3]; 0.2 µM 2015, read-out: PKCeta residual activity",80.3%
same,remaining activity at 1 µM,"340 wild-type kinases [3]; 1 µM 2015, read-out: PKCeta residual activity",90.1%
same,remaining activity at 0.2 µM,"340 wild-type kinases [3]; PKCeta, 0.2 µM, read-out: residual activity",80.3%
same,remaining activity at 1 µM,"340 wild-type kinases [3]; PKCeta, 1 µM, read-out: residual activity",90.1%
same,remaining activity at 0.2 µM,"340 wild-type kinases [4]; 0.2 µM 2015, read-out: MEK5 residual activity",102%
same,remaining activity at 1 µM,"340 wild-type kinases [4]; 1 µM 2015, read-out: MEK5 residual activity",88.1%
same,remaining activity at 0.2 µM,"340 wild-type kinases [4]; MEK5, 0.2 µM, read-out: residual activity",102%
same,remaining activity at 1 µM,"340 wild-type kinases [4]; MEK5, 1 µM, read-out: residual activity",88.1%
same,remaining activity at 0.2 µM,"340 wild-type kinases [5]; 0.2 µM 2015, read-out: CAMK1D residual activity",100%
same,remaining activity at 1 µM,"340 wild-type kinases [5]; 1 µM 2015, read-out: CAMK1D residual activity",90.6%
same,remaining activity at 0.2 µM,"340 wild-type kinases [5]; CAMK1D, 0.2 µM, read-out: residual activity",100%
same,remaining activity at 1 µM,"340 wild-type kinases [5]; CAMK1D, 1 µM, read-out: residual activity",90.6%
same,remaining activity at 0.2 µM,"340 wild-type kinases [6]; 0.2 µM 2015, read-out: STK33 residual activity",99.1%
same,remaining activity at 1 µM,"340 wild-type kinases [6]; 1 µM 2015, read-out: STK33 residual activity",96.3%
same,remaining activity at 0.2 µM,"340 wild-type kinases [6]; STK33, 0.2 µM, read-out: residual activity",99.1%
same,remaining activity at 1 µM,"340 wild-type kinases [6]; STK33, 1 µM, read-out: residual activity",96.3%
same,remaining activity at 0.2 µM,"340 wild-type kinases [7]; 0.2 µM 2015, read-out: GSG2 residual activity",105%
same,remaining activity at 1 µM,"340 wild-type kinases [7]; 1 µM 2015, read-out: GSG2 residual activity",82.5%
same,remaining activity at 0.2 µM,"340 wild-type kinases [7]; GSG2, 0.2 µM, read-out: residual activity",105%
same,remaining activity at 1 µM,"340 wild-type kinases [7]; GSG2, 1 µM, read-out: residual activity",82.5%
